Test results as given in PubChem BioAssay (NCI).
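Growth conditions: 96-well plates. Treatment: test compound, 48 hours, 5 concentrations. Analysis: linear interpolation between bracketing concentrations; unreached endpoints set to highest concentration. TGI denotes the concentration required for complete inhibition of growth.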

Assays:
Assay in all cases: NCI-60 cell line screen, 48 h
ACHN renal = tested on: ACHN renal
NCI-H226 lung = tested on: NCI-H226 lung
K-562 leukemia = tested on: K-562 leukemia
RXF-631 renal = tested on: RXF-631 renal
SK-MEL-2 melanoma = tested on: SK-MEL-2 melanoma
CCRF-CEM leukemia = tested on: CCRF-CEM leukemia
CAKI-1 renal = tested on: CAKI-1 renal
HCT-15 colon = tested on: HCT-15 colon
NCI-H460 lung = tested on: NCI-H460 lung
786-0 renal = tested on: 786-0 renal
OVCAR-4 ovarian = tested on: OVCAR-4 ovarian
M14 melanoma = tested on: M14 melanoma
HOP-18 NSCLC = tested on: HOP-18 NSCLC
UACC-257 melanoma = tested on: UACC-257 melanoma
DLD-1 colon = tested on: DLD-1 colon
TK-10 renal = tested on: TK-10 renal
U251 CNS = tested on: U251 CNS
SNB-19 CNS = tested on: SNB-19 CNS
SF-539 CNS = tested on: SF-539 CNS
SNB-75 CNS = tested on: SNB-75 CNS
SW-620 colon = tested on: SW-620 colon
OVCAR-5 ovarian = tested on: OVCAR-5 ovarian
SNB-78 CNS = tested on: SNB-78 CNS
M19-MEL melanoma = tested on: M19-MEL melanoma
SF-268 CNS = tested on: SF-268 CNS
HT29 colon = tested on: HT29 colon
SR leukemia = tested on: SR leukemia
HL-60(TB) leukemia = tested on: HL-60(TB) leukemia
MALME-3M melanoma = tested on: MALME-3M melanoma
SF-295 CNS = tested on: SF-295 CNS
NCI-H23 lung = tested on: NCI-H23 lung
LXFL 529 NSCLC = tested on: LXFL 529 NSCLC
KM20L2 colon = tested on: KM20L2 colon
DMS 114 small cell lung = tested on: DMS 114 small cell lung
UACC-62 melanoma = tested on: UACC-62 melanoma
LOX IMVI melanoma = tested on: LOX IMVI melanoma
A498 renal = tested on: A498 renal
HOP-62 NSCLC = tested on: HOP-62 NSCLC
IGROV1 ovarian = tested on: IGROV1 ovarian
HOP-92 NSCLC = tested on: HOP-92 NSCLC
HCT-116 colon = tested on: HCT-116 colon
MOLT-4 leukemia = tested on: MOLT-4 leukemia
RPMI-8226 leukemia = tested on: RPMI-8226 leukemia
EKVX NSCLC = tested on: EKVX NSCLC
OVCAR-8 ovarian = tested on: OVCAR-8 ovarian
A549 NSCLC = tested on: A549 NSCLC
KM12 colon = tested on: KM12 colon
UO-31 renal = tested on: UO-31 renal
SK-OV-3 ovarian = tested on: SK-OV-3 ovarian
HCC-2998 colon = tested on: HCC-2998 colon
SK-MEL-28 melanoma = tested on: SK-MEL-28 melanoma
SN12C renal = tested on: SN12C renal
DMS 273 small cell lung = tested on: DMS 273 small cell lung
RXF 393 renal = tested on: RXF 393 renal
NCI-H522 lung = tested on: NCI-H522 lung
COLO 205 colon = tested on: COLO 205 colon
OVCAR-3 ovarian = tested on: OVCAR-3 ovarian
SK-MEL-5 melanoma = tested on: SK-MEL-5 melanoma

Work on `CN(C)C(=S)/N=c1\ssc(=Nc2ccccc2)n1C` yielded a TGI (ACHN renal) of over 100 µM, a TGI (NCI-H226 lung) of over 100 µM and a TGI (K-562 leukemia) of over 100 µM. For the same compound, the TGI (RXF-631 renal) was over 100 µM, the TGI (SK-MEL-2 melanoma) was over 100 µM and the TGI (CCRF-CEM leukemia) was over 100 µM. The TGI (CAKI-1 renal) was over 100 µM, the TGI (HCT-15 colon) was over 100 µM and the TGI (NCI-H460 lung) was over 100 µM. It also gave a TGI (786-0 renal) of over 100 µM, a TGI (OVCAR-4 ovarian) of over 100 µM and a TGI (M14 melanoma) of over 100 µM. For the same compound, the TGI (HOP-18 NSCLC) was over 100 µM, the TGI (UACC-257 melanoma) was over 100 µM and the TGI (DLD-1 colon) was over 100 µM. For the same compound, the TGI (TK-10 renal) was over 100 µM, the TGI (U251 CNS) was over 100 µM and the TGI (SNB-19 CNS) was over 100 µM. It also gave a TGI (SF-539 CNS) of over 100 µM, a TGI (SNB-75 CNS) of 44.7 µM and a TGI (SW-620 colon) of over 100 µM. The TGI (OVCAR-5 ovarian) was over 100 µM, the TGI (SNB-78 CNS) was over 100 µM and the TGI (M19-MEL melanoma) was over 100 µM. The TGI (SF-268 CNS) was over 100 µM, the TGI (HT29 colon) was over 100 µM and the TGI (SR leukemia) was over 100 µM. It also gave a TGI (HL-60(TB) leukemia) of over 100 µM, a TGI (MALME-3M melanoma) of over 100 µM and a TGI (SF-295 CNS) of over 100 µM. The TGI (NCI-H23 lung) was over 100 µM, the TGI (LXFL 529 NSCLC) was over 100 µM and the TGI (KM20L2 colon) was over 100 µM. For the same compound, the TGI (DMS 114 small cell lung) was over 100 µM, the TGI (UACC-62 melanoma) was over 100 µM and the TGI (LOX IMVI melanoma) was over 100 µM. It also gave a TGI (A498 renal) of over 100 µM, a TGI (HOP-62 NSCLC) of over 100 µM and a TGI (IGROV1 ovarian) of over 100 µM. The TGI (HOP-92 NSCLC) was over 100 µM, the TGI (HCT-116 colon) was over 100 µM and the TGI (MOLT-4 leukemia) was over 100 µM. For the same compound, the TGI (RPMI-8226 leukemia) was over 100 µM, the TGI (EKVX NSCLC) was over 100 µM and the TGI (OVCAR-8 ovarian) was over 100 µM. The TGI (A549 NSCLC) was over 100 µM, the TGI (KM12 colon) was over 100 µM and the TGI (UO-31 renal) was over 100 µM. For the same compound, the TGI (SK-OV-3 ovarian) was over 100 µM, the TGI (HCC-2998 colon) was over 100 µM and the TGI (SK-MEL-28 melanoma) was over 100 µM. It also gave a TGI (SN12C renal) of over 100 µM, a TGI (DMS 273 small cell lung) of over 100 µM and a TGI (RXF 393 renal) of over 100 µM.
`O=C1C2=C(C(c3ccccc3)=C1c1ccccc1)c1ccccc1C1(c3ccccc3)C2=C(O)C(c2ccccc2)=C1c1ccccc1` (centres undefined) showed a TGI (ACHN renal) of over 100 µM, a TGI (NCI-H226 lung) of over 100 µM and a TGI (NCI-H522 lung) of over 100 µM. The TGI (RXF-631 renal) was over 100 µM, the TGI (SK-MEL-2 melanoma) was over 100 µM and the TGI (CAKI-1 renal) was over 100 µM. For the same compound, the TGI (HCT-15 colon) was over 100 µM, the TGI (NCI-H460 lung) was over 100 µM and the TGI (786-0 renal) was over 100 µM. It also gave a TGI (OVCAR-4 ovarian) of over 100 µM, a TGI (M14 melanoma) of over 100 µM and a TGI (HOP-18 NSCLC) of over 100 µM. It also gave a TGI (UACC-257 melanoma) of over 100 µM, a TGI (DLD-1 colon) of over 100 µM and a TGI (TK-10 renal) of over 100 µM. The TGI (U251 CNS) was over 100 µM, the TGI (SF-539 CNS) was over 100 µM and the TGI (SNB-75 CNS) was over 100 µM. The TGI (SW-620 colon) was over 100 µM, the TGI (OVCAR-5 ovarian) was over 100 µM and the TGI (SNB-78 CNS) was over 100 µM. The TGI (COLO 205 colon) was over 100 µM, the TGI (M19-MEL melanoma) was over 100 µM and the TGI (SF-268 CNS) was over 100 µM. The TGI (HT29 colon) was over 100 µM, the TGI (SR leukemia) was over 100 µM and the TGI (HL-60(TB) leukemia) was over 100 µM. It also gave a TGI (MALME-3M melanoma) of over 100 µM, a TGI (SF-295 CNS) of over 100 µM and a TGI (NCI-H23 lung) of over 100 µM. It also gave a TGI (LXFL 529 NSCLC) of over 100 µM, a TGI (KM20L2 colon) of over 100 µM and a TGI (DMS 114 small cell lung) of over 100 µM. For the same compound, the TGI (UACC-62 melanoma) was over 100 µM, the TGI (LOX IMVI melanoma) was over 100 µM and the TGI (A498 renal) was over 100 µM. For the same compound, the TGI (HOP-62 NSCLC) was over 100 µM, the TGI (IGROV1 ovarian) was over 100 µM and the TGI (HOP-92 NSCLC) was over 100 µM. The TGI (OVCAR-3 ovarian) was over 100 µM, the TGI (HCT-116 colon) was over 100 µM and the TGI (MOLT-4 leukemia) was over 100 µM. The TGI (RPMI-8226 leukemia) was over 100 µM, the TGI (EKVX NSCLC) was over 100 µM and the TGI (OVCAR-8 ovarian) was over 100 µM. The TGI (A549 NSCLC) was over 100 µM, the TGI (SK-MEL-5 melanoma) was over 100 µM and the TGI (KM12 colon) was over 100 µM. It also gave a TGI (UO-31 renal) of over 100 µM, a TGI (SK-OV-3 ovarian) of over 100 µM and a TGI (HCC-2998 colon) of over 100 µM. It also gave a TGI (SK-MEL-28 melanoma) of over 100 µM, a TGI (SN12C renal) of over 100 µM and a TGI (DMS 273 small cell lung) of over 100 µM. It also gave a TGI (RXF 393 renal) of over 100 µM.
